In US10328051B2, “Proline or proline derivatives for the treatment of dementia” (priority 2014, dated 2019):

Tests used:
[1] = Single ascending oral doses of CHP (Study 1001-68) and single IV dose (Study 0302-72): pharmacokinetics and safety in healthy volunteers; type: in vivo, human; details: healthy subjects
From the text: study title Safety, tolerability and pharmacokinetic profile of single ascending doses of oral cis-4-hydroxy-L-proline (CHP) in healthy volunteers Galmed study no. 1001-68-. Results FIGS. 3 and 4.
Study title: Single Dose Absolute Bioavailability (intravenous IV solution) and Safety Study of CHP in Healthy Volunteers-GALMED Study No: 0302-72. Results are in (FIGS. 5 and 6)
Six healthy volunteers (male, caucasian—18-45 years old) were recruited from the GCP-Galmed clinical centre. All healthy volunteers provided written informed consent prior to study participation. The study was approved by the independent Ethical Committee.
All volunteers were orally administered 2, 4, 6, 8, 10 and 12 grams of CHP with a wash out period of at least one week between doses of CHP.
The following blood and urine samples were collected for determination of the pharmacokinetics parameters of CHP and THP:
10 hours and immediately prior to administration of CHP (0 Hour), and at 0.25, 0.5, 1, 1.5, 2, 2.5, 3, 4, 5, 6, 12 and 24 hours after administration of CHP.
Urine was collected for the determination of the CHP and THP concentrations and the calculation of the elimination parameters of CHP and THP.
Six healthy volunteers (male, caucasian—18-45 years old) were recruited from the GCP-Galmed clinical centre. All healthy volunteers provided written informed consent prior to study participation. The study was approved by the independent Ethical Committee. Single doses of CHP were intravenously administered: 2.0 g, 4.0 g (2×2.0 g). Each dose level was administered to all healthy volunteers. There was a washout period of at least one week between doses.
The following safety parameters were determined at the pre- and post-study examinations: • 1. Vital signs • 2. Clinical laboratory: Blood chemistry, Haematology, Coagulation, Urinalysis • 3. Adverse events (Signs and Symptoms) have been recorded in each of the two treatment periods.

[2] = Multiple dose ascending bioavailability and safety study (Phase I) with oral CHP (Study 0202-71); type: in vivo, human
Description: Example 5—Study Title: Multiple Dose Ascending Bioavailability and Safety Study Phase 1 with Oral CHP-GALMED Study No: 0202-71
12 healthy Caucasian males were recruited (age: 18-45 years).
Multiple doses of CHP were orally administered: • 4×2.0 g CHP per day, for 14 consecutive days (total daily dose=8.0 g CHP) • 4×3.0 g CHP per day, for 14 consecutive days (total daily dose=12.0 g CHP) Each dose level was administered to all volunteers.
Objectives • To determine the pharmacokinetic parameters and safety of CHP and THP in plasma following oral administration of multiple doses of 8 g CHP (4×2 g) and 12 g CHP (4×3 g)—4× daily, τ=6 h, respectively, in 12 healthy subjects on Day 1 and Day 14. • To model and simulate plasma concentrations of CHP and THP during Days 1 to 14.

[3] = Tissue distribution and pharmacokinetics of single dose of radiolabelled 3H-CHP in mice (Study IPSS C053); type: in vivo; details: for Tissues that accumulated particularly high CHP concentrations: single dose 3H-CHP; for AUC-1 in the stomach / Cmax in the stomach / Cmax in brain & pituitary gland / AUC-1 for remaining carcass as % of the totaled AUC-1 for all tissues & samples: single dose 50 μCi 3H-CHP
From the text: Example 1: Tissue Distribution and Pharmacokinetic Study with CHP Study “Clinical Study in Mice on the Tissue Distribution and Pharmacokinetics of Single Dose of the Radiolabelled ^3H-CHP-Study No.: IPSS C053”—(FIG. 1). This Study has been Designed and Performed According to this Invention
1. Determination of ^3H-CHP distribution in 25 tissues, remaining carcass and whole blood over time.
2. Determination of pharmacokinetic parameters of CHP.
3. Comparison of intravenous (IV), and oral routes of administration.
^3H-CHP Labelling • CHP was labelled on the 4-prime position using tritium. • The scintillation counting technique detects the tritium atom. • Therefore the counting technique detects CHP and some metabolites which incorporate the tritium. […] They were selected using inclusion and exclusion criteria, and were therefore highly standardised.
Dosing Regimen • 48 animals were each administered 50 μCi ^3H-CHP at the start of the experiment. This was termed time zero (00:00 hrs). • 27 mice were dosed via the intravenous (IV) route. • 21 mice were dosed via the oral route. • Six (6) animals were not administered with CHP. They form two control groups of 3 mice each.
Data Collection • 3 mice were sacrificed following the SOP for anesthesia and according to the following time intervals
Sample Collection • From each sacrificed mouse, the following samples were taken: • Whole BloodEyes & Harderian GlandsKidneys & Adrenal GlandsAortaLiverLungSpleenUrinary BladderBone & Bone MarrowCaecumSmall IntestineLarge IntestineLymph Nodes (Mesenteric) Muscle, PancreasBrain & Pituitary GlandBrown FatSubcutaneous FatHeartThymousBoth TestesProstateSkinStomachThyroidSalivary GlandsRemaining CarcassUrine (collected if possible: in practise this was rare)
The remaining carcass sample consisted of the rest after removal of whole blood and the other tissues. Any material cleaned from other tissues listed above was also included. The collected remainings were homogenised before analysis.

[4] = Tissue distribution, bioaccumulation and pharmacokinetics following multiple dose administration of 3H-CHP in mice (Study IPSS E015); type: in vivo; details: multiple dose administration
From the text: Example 2. A Study in Mice on the Tissue Distribution, Bioaccumulation and Pharmacokinetics in Tissues, Connective and BrainTissues Following Multiple Dose Administration of ^3H-CHP Study No. IPSS E015 (FIG. 2)
According to this invention the study has been designed and performed as follows:
From each mouse sacrificed, the following organs & tissues samples were taken:
Liver, kidney, pancreas, limbic system, spinal fluid, brain stem, cerebrum, cerebellum, cartilage, ligaments and tendons (dense or fibrous connective tissue), loose connective tissue, and reticular connective tissue (supports lymph nodes, bone marrow, and spleen)

[5] = after oral administration of CHP 2 g-12 g
[6] = male, human, plasma, healthy subjects, oral 4×2.0 g CHP/day
[7] = oral CHP, administration 4× daily

Compound: O=C(O)[C@@H]1C[C@@H](O)CN1 [THP, trans-4-hydroxy-L-proline]
- Oral clearance (average) [1, 5]: 798.42 mL/min
- Volume of distribution (average) [1, 5]: 804.70 L
- Correlation of Cmax and AUC(0-∞) with dose ([1]; oral CHP doses 2 g-12 g): dose linearity
- MRT ([1]; male, human, blood, after oral administration of CHP 2 g-12 g, read-out: Mean residence time (MRT) (average)): 23.2 h
- half-life ([1]; male, human, in vivo, after oral administration of CHP 2 g-12 g, read-out: Elimination half life (average) (converted)): 14.8 h
- Tmax ([1]; male, human, plasma, after oral administration of CHP 2 g-12 g): 4.92 h
- Cmax [2, 6]: 9560 ng/mL
- Tmax [2, 6]: 1.5 h
- half-life [2, 6]: 12.4 h
- MRT inf ([2]; male, human, plasma, healthy subjects, oral 4×2.0 g CHP/day, read-out: MRT (0-inf)): 19.1 h
- Accumulation following oral administration ([2]; multiple oral doses of CHP): remarkable extent
- Time after which a steady state was observed ([2]; multiple oral doses of CHP, 4× daily, simulation of plasma concentration-time curves): ~96 h
- Css,min lower if 2.0 g of CHP was administered (versus 3.0 g) [2, 7]: 24%
- Increase of AUCss,t, Css,max and Css,ave when the dose was increased from 2.0 g up to 3.0 g [2, 7]: approximately 50%

Compound: O=C(O)C1C[C@H](O)CN1 (stereo partly shown) [^3H-CHP]
- Tissues that accumulated particularly high CHP concentrations ([3]; intravenous application): Pancreas, lymph nodes (mesenteric), kidneys & adrenal Glands, caecum, large intestine, small intestine, spleen, liver, urinary bladder
- Tissues that accumulated particularly high CHP concentrations ([3]; oral application): Pancreas, stomach, kidneys & adrenal glands, small intestine, lymph nodes (mesenteric), spleen, caecum, bone & bone marrow, large intestine, and liver
- AUC-1 in the stomach ([3]; IV): 10.493 DPM/mg
- Cmax in the stomach ([3]; IV): 3.269 DPM/mg
- Cmax in brain & pituitary gland ([3]; IV, control 4 DPM/mg): 876 DPM/mg
- AUC-1 for remaining carcass as % of the totaled AUC-1 for all tissues & samples ([3]; intravenous (IV)): 73.3%
- AUC-1 for remaining carcass as % of the totaled AUC-1 for all tissues & samples ([3]; oral): 61.8%
- AUC-1 in the stomach ([3]; oral): 27.297 DPM/mg
- Cmax in the stomach ([3]; oral): 7.361 DPM/mg
- Cmax in brain & pituitary gland ([3]; oral, control 1 DPM/mg): 419 DPM/mg
- Tissues with particular high levels of 3H-CHP accumulation [4]: kidneys and adrenal glands liver, pancreas loose connective tissue cartilage, reticular connective tissue, dense/fibrinous connective tissues
